Measurements: patent US8445492B2, “Method for inhibiting growth of cancer cells and cell telomere and diseases of cell proliferation by using heteroannelated anthraquinone derivative compounds” (National Defense Medical Center, priority 2008, dated 2013)

What was measured:
Assay type in all cases: cell-based
OVCAR-3 = assay: NCI DTP in-vitro dose response, Ovarian Cancer; details: for GI50: read-out: GI50
OVCAR-4 = assay: NCI DTP in-vitro dose response, Ovarian Cancer; details: for GI50: read-out: GI50
OVCAR-5 = assay: NCI DTP in-vitro dose response, Ovarian Cancer; details: for GI50: read-out: GI50
OVCAR-8 = assay: NCI DTP in-vitro dose response, Ovarian Cancer; details: for GI50: read-out: GI50
SK-OV-3 = assay: NCI DTP in-vitro dose response, Ovarian Cancer; details: for GI50: read-out: GI50
IGROV1 = assay: NCI DTP in-vitro dose response, Ovarian Cancer
MCF7 = assay: NCI DTP in-vitro dose response, Breast Cancer
NCI/ADR-RES = assay: NCI DTP in-vitro dose response, Breast Cancer
MDA-MB-231/ATCC = assay: NCI DTP in-vitro dose response, Breast Cancer
HS 578T = assay: NCI DTP in-vitro dose response, Breast Cancer
MDA-MB-435 = assay: NCI DTP in-vitro dose response, Breast Cancer
BT-549 = assay: NCI DTP in-vitro dose response, Breast Cancer
T-47D = assay: NCI DTP in-vitro dose response, Breast Cancer
MDA-MB-468 = assay: NCI DTP in-vitro dose response, Breast Cancer

`CCc1nc2ccc3c(c2[nH]1)C(=O)c1ccccc1C3=O` [TABLE 4-6] was tested, and the CC50 (OVCAR-3) was over 100 µM, the TGI (OVCAR-3) was over 1.00E−4 and the “Percent Growth” value (OVCAR-3; Log10 Concentration −4.0) was 8%. For the same molecule, the “Percent Growth” value (OVCAR-3; Log10 Concentration −5.0) was 57%, the “Percent Growth” value (OVCAR-3; Log10 Concentration −6.0) was 93% and the “Percent Growth” value (OVCAR-3; Log10 Concentration −7.0) was 106%. For the same molecule, the “Percent Growth” value (OVCAR-3; Log10 Concentration −8.0) was 100%, the GI50 (OVCAR-3) was 14.1 µM and the CC50 (OVCAR-4) was over 100 µM. For the same molecule, the TGI (OVCAR-4) was over 1.00E−4, the “Percent Growth” value (OVCAR-4; Log10 Concentration −4.0) was 15% and the “Percent Growth” value (OVCAR-4; Log10 Concentration −5.0) was 37%. For the same molecule, the “Percent Growth” value (OVCAR-4; Log10 Concentration −6.0) was 83%, the “Percent Growth” value (OVCAR-4; Log10 Concentration −7.0) was 96% and the “Percent Growth” value (OVCAR-4; Log10 Concentration −8.0) was 98%. The GI50 (OVCAR-4) was 5.18 µM, the CC50 (OVCAR-5) was over 100 µM and the TGI (OVCAR-5) was over 1.00E−4. For the same molecule, the “Percent Growth” value (OVCAR-5; Log10 Concentration −4.0) was 45%, the “Percent Growth” value (OVCAR-5; Log10 Concentration −5.0) was 85% and the “Percent Growth” value (OVCAR-5; Log10 Concentration −6.0) was 94%. The “Percent Growth” value (OVCAR-5; Log10 Concentration −7.0) was 91%, the “Percent Growth” value (OVCAR-5; Log10 Concentration −8.0) was 88% and the GI50 (OVCAR-5) was 75.7 µM. The CC50 (OVCAR-8) was over 100 µM, the TGI (OVCAR-8) was over 1.00E−4 and the “Percent Growth” value (OVCAR-8; Log10 Concentration −4.0) was 24%. The “Percent Growth” value (OVCAR-8; Log10 Concentration −5.0) was 58%, the “Percent Growth” value (OVCAR-8; Log10 Concentration −6.0) was 92% and the “Percent Growth” value (OVCAR-8; Log10 Concentration −7.0) was 91%. For the same molecule, the “Percent Growth” value (OVCAR-8; Log10 Concentration −8.0) was 96%, the GI50 (OVCAR-8) was 17.7 µM and the CC50 (SK-OV-3) was over 100 µM. The TGI (SK-OV-3) was over 1.00E−4, the “Percent Growth” value (SK-OV-3; Log10 Concentration −4.0) was 14% and the “Percent Growth” value (SK-OV-3; Log10 Concentration −5.0) was 12%. For the same molecule, the “Percent Growth” value (SK-OV-3; Log10 Concentration −6.0) was 76%, the “Percent Growth” value (SK-OV-3; Log10 Concentration −7.0) was 92% and the “Percent Growth” value (SK-OV-3; Log10 Concentration −8.0) was 95%. It also gave a GI50 (SK-OV-3) of 2.55 µM, a CC50 (IGROV1) of over 100 µM and a GI50 (IGROV1) of 1.34 µM. The TGI (IGROV1) was 1.69E−5, the “Percent Growth” value (IGROV1; Log10 Concentration −4.0) was −19% and the “Percent Growth” value (IGROV1; Log10 Concentration −5.0) was 6%. For the same molecule, the “Percent Growth” value (IGROV1; Log10 Concentration −6.0) was 56%, the “Percent Growth” value (IGROV1; Log10 Concentration −7.0) was 88% and the “Percent Growth” value (IGROV1; Log10 Concentration −8.0) was 89%.

`CCc1nc2ccc3c(c2[nH]1)C(=O)c1ccccc1C3=O` [TABLE 4-9] was tested, and the CC50 (MCF7) was over 100 µM, the TGI (MCF7) was 8.14E−5 and the “Percent Growth” value (MCF7; Log10 Concentration −4.0) was −4%. The “Percent Growth” value (MCF7; Log10 Concentration −5.0) was 37%, the “Percent Growth” value (MCF7; Log10 Concentration −6.0) was 54% and the “Percent Growth” value (MCF7; Log10 Concentration −7.0) was 76%. The “Percent Growth” value (MCF7; Log10 Concentration −8.0) was 85%, the GI50 (MCF7; read-out: GI50) was 1.68 µM and the CC50 (NCI/ADR-RES) was over 100 µM. For the same molecule, the TGI (NCI/ADR-RES) was over 1.00E−4, the “Percent Growth” value (NCI/ADR-RES; Log10 Concentration −4.0) was 6% and the “Percent Growth” value (NCI/ADR-RES; Log10 Concentration −5.0) was 51%. For the same molecule, the “Percent Growth” value (NCI/ADR-RES; Log10 Concentration −6.0) was 89%, the “Percent Growth” value (NCI/ADR-RES; Log10 Concentration −7.0) was 99% and the “Percent Growth” value (NCI/ADR-RES; Log10 Concentration −8.0) was 95%. For the same molecule, the GI50 (NCI/ADR-RES; read-out: GI50) was 10.5 µM, the CC50 (MDA-MB-231/ATCC) was over 100 µM and the TGI (MDA-MB-231/ATCC) was over 1.00E−4. The “Percent Growth” value (MDA-MB-231/ATCC; Log10 Concentration −4.0) was 36%, the “Percent Growth” value (MDA-MB-231/ATCC; Log10 Concentration −5.0) was 54% and the “Percent Growth” value (MDA-MB-231/ATCC; Log10 Concentration −6.0) was 90%. For the same molecule, the “Percent Growth” value (MDA-MB-231/ATCC; Log10 Concentration −7.0) was 95%, the “Percent Growth” value (MDA-MB-231/ATCC; Log10 Concentration −8.0) was 98% and the GI50 (MDA-MB-231/ATCC; read-out: GI50) was 16.6 µM. The CC50 (HS 578T) was over 100 µM, the TGI (HS 578T) was 2.67E−5 and the “Percent Growth” value (HS 578T; Log10 Concentration −4.0) was −32%. For the same molecule, the “Percent Growth” value (HS 578T; Log10 Concentration −5.0) was 24%, the “Percent Growth” value (HS 578T; Log10 Concentration −6.0) was 56% and the “Percent Growth” value (HS 578T; Log10 Concentration −7.0) was 108%. For the same molecule, the “Percent Growth” value (HS 578T; Log10 Concentration −8.0) was 107%, the GI50 (HS 578T; read-out: GI50) was 1.56 µM and the CC50 (MDA-MB-435) was over 100 µM. For the same molecule, the TGI (MDA-MB-435) was over 1.00E−4, the “Percent Growth” value (MDA-MB-435; Log10 Concentration −4.0) was 37% and the “Percent Growth” value (MDA-MB-435; Log10 Concentration −5.0) was 66%. The “Percent Growth” value (MDA-MB-435; Log10 Concentration −6.0) was 92%, the “Percent Growth” value (MDA-MB-435; Log10 Concentration −7.0) was 91% and the “Percent Growth” value (MDA-MB-435; Log10 Concentration −8.0) was 97%. It also gave a GI50 (MDA-MB-435; read-out: GI50) of 36.5 µM, a CC50 (BT-549) of over 100 µM and a TGI (BT-549) of over 1.00E−4. For the same molecule, the “Percent Growth” value (BT-549; Log10 Concentration −4.0) was 15%, the “Percent Growth” value (BT-549; Log10 Concentration −5.0) was 60% and the “Percent Growth” value (BT-549; Log10 Concentration −6.0) was 95%. The “Percent Growth” value (BT-549; Log10 Concentration −7.0) was 100%, the “Percent Growth” value (BT-549; Log10 Concentration −8.0) was 101% and the GI50 (BT-549; read-out: GI50) was 16.7 µM. The CC50 (T-47D) was over 100 µM, the TGI (T-47D) was over 1.00E−4 and the “Percent Growth” value (T-47D; Log10 Concentration −4.0) was 10%. For the same molecule, the “Percent Growth” value (T-47D; Log10 Concentration −5.0) was 32%, the “Percent Growth” value (T-47D; Log10 Concentration −6.0) was 78% and the “Percent Growth” value (T-47D; Log10 Concentration −7.0) was 94%. For the same molecule, the “Percent Growth” value (T-47D; Log10 Concentration −8.0) was 105%, the GI50 (T-47D; read-out: GI50) was 4 µM and the CC50 (MDA-MB-468) was over 100 µM. For the same molecule, the TGI (MDA-MB-468) was 6.33E−5, the “Percent Growth” value (MDA-MB-468; Log10 Concentration −4.0) was −7% and the “Percent Growth” value (MDA-MB-468; Log10 Concentration −5.0) was 29%. For the same molecule, the “Percent Growth” value (MDA-MB-468; Log10 Concentration −6.0) was 79%, the “Percent Growth” value (MDA-MB-468; Log10 Concentration −7.0) was 89% and the “Percent Growth” value (MDA-MB-468; Log10 Concentration −8.0) was 83%. For the same molecule, the GI50 (MDA-MB-468; read-out: GI50) was 3.83 µM.

For `O=C1c2ccccc2C(=O)c2c1ccc1nccnc21` [TABLE 5-6], the CC50 (OVCAR-3) was over 100 µM, the TGI (OVCAR-3) was 1.25E−5 and the “Percent Growth” value (OVCAR-3; Log10 Concentration −4.0) was −42%. For the same molecule, the “Percent Growth” value (OVCAR-3; Log10 Concentration −5.0) was 4%, the “Percent Growth” value (OVCAR-3; Log10 Concentration −6.0) was 77% and the “Percent Growth” value (OVCAR-3; Log10 Concentration −7.0) was 95%. The “Percent Growth” value (OVCAR-3; Log10 Concentration −8.0) was 104%, the GI50 (OVCAR-3) was 2.34 µM and the CC50 (OVCAR-4) was over 100 µM. For the same molecule, the TGI (OVCAR-4) was over 1.00E−4, the “Percent Growth” value (OVCAR-4; Log10 Concentration −4.0) was 3% and the “Percent Growth” value (OVCAR-4; Log10 Concentration −5.0) was 51%. For the same molecule, the “Percent Growth” value (OVCAR-4; Log10 Concentration −6.0) was 74%, the “Percent Growth” value (OVCAR-4; Log10 Concentration −7.0) was 91% and the “Percent Growth” value (OVCAR-4; Log10 Concentration −8.0) was 102%. It also gave a GI50 (OVCAR-4) of 10.5 µM, a CC50 (OVCAR-5) of over 100 µM and a TGI (OVCAR-5) of over 1.00E−4. For the same molecule, the “Percent Growth” value (OVCAR-5; Log10 Concentration −4.0) was 19%, the “Percent Growth” value (OVCAR-5; Log10 Concentration −5.0) was 77% and the “Percent Growth” value (OVCAR-5; Log10 Concentration −6.0) was 98%. For the same molecule, the “Percent Growth” value (OVCAR-5; Log10 Concentration −7.0) was 90%, the “Percent Growth” value (OVCAR-5; Log10 Concentration −8.0) was 97% and the GI50 (OVCAR-5) was 59.3 µM. For the same molecule, the CC50 (OVCAR-8) was over 100 µM, the TGI (OVCAR-8) was over 1.00E−4 and the “Percent Growth” value (OVCAR-8; Log10 Concentration −4.0) was 13%. The “Percent Growth” value (OVCAR-8; Log10 Concentration −5.0) was 36%, the “Percent Growth” value (OVCAR-8; Log10 Concentration −6.0) was 83% and the “Percent Growth” value (OVCAR-8; Log10 Concentration −7.0) was 89%. The “Percent Growth” value (OVCAR-8; Log10 Concentration −8.0) was 97%, the GI50 (OVCAR-8) was 5.07 µM and the CC50 (SK-OV-3) was over 100 µM. The TGI (SK-OV-3) was over 1.00E−4, the “Percent Growth” value (SK-OV-3; Log10 Concentration −4.0) was 8% and the “Percent Growth” value (SK-OV-3; Log10 Concentration −5.0) was 44%. For the same molecule, the “Percent Growth” value (SK-OV-3; Log10 Concentration −6.0) was 79%, the “Percent Growth” value (SK-OV-3; Log10 Concentration −7.0) was 89% and the “Percent Growth” value (SK-OV-3; Log10 Concentration −8.0) was 91%. The GI50 (SK-OV-3) was 6.95 µM, the CC50 (IGROV1) was over 100 µM and the GI50 (IGROV1) was 2.55 µM. The TGI (IGROV1) was 3.59E−5, the “Percent Growth” value (IGROV1; Log10 Concentration −4.0) was −27% and the “Percent Growth” value (IGROV1; Log10 Concentration −5.0) was 33%. For the same molecule, the “Percent Growth” value (IGROV1; Log10 Concentration −6.0) was 61%, the “Percent Growth” value (IGROV1; Log10 Concentration −7.0) was 74% and the “Percent Growth” value (IGROV1; Log10 Concentration −8.0) was 90%.
